Measured values: patent US7015209B2, “Hair-growing agent” (Kyowa Hakko Kogyo Co., Ltd., priority 1999, dated 2006)
Where two headings read alike, the source gives them in different places. One block for each compound: values may come before it.

What was measured:
[1] = test system: mouse hair follicle epithelial cells; assay: Cell growth-promoting effect on cultured mouse hair follicle epithelial cells (MTT); assay type: cell-based
Experimental: Hair follicle epithelial cells were separated and cultured according to a modification of the method of Tanigaki, et al. [Archives of Dermatological Research, 284, 290–296 (1992)].
The skin on the back of a 4-days-old C3H mouse (Charles River Japan, Inc.) was cut off and treated with MEM (Eagle's Minimum Essential Medium) containing 500 units/ml Dispase (Godo Shusei Co., Ltd.) and 5% fetal calf serum (FCS) at 4° C. for 16 hours.
Then, the epidermis was stripped from the skin section, and the obtained dermis layer was treated with DMEM (Dulbecco's modified Eagle Medium) containing 0.25% Collagenase N-2 (Nitta Gelatin Co., Ltd.) and 10% FCS at 37° C. for one hour to obtain a dermis suspension. The dermis suspension was filtered through a 212-μm nylon mesh (Nippon Rikagaku Kikai Co., Ltd.) and the filtrate was centrifuged at 1000 rpm for 5 minutes to obtain pellets containing hair follicle tissue. To the pellets was added calcium/magnesium-free PBS (Dulbecco's Phosphate-Buffered Saline) and the pellets were suspended therein using a pipette. The resulting suspension was allowed to stand for 15 minutes to precipitate hair tissue. The same procedure as above (addition of calcium/magnesium-free PBS, suspending by use of a pipette, and precipitation by allowing suspension to stand for 15 minutes) was repeated three times using the obtained hair tissue.
Then, the hair tissue was treated with a solution containing 0.1% ethylenediaminetetraacetic acid (EDTA) and 0.25% trypsin (Gibco) at 37° C. for 5 minutes. To the resulting mixture was added DMEM containing 10% FCS to prepare a hair tissue cell suspension having a density of 3×10^5 cells/ml. The hair tissue cell suspension was put into wells of a 24-well collagen-coated plate (Iwaki Glass Co., Ltd.) in an amount of 1 ml/well, followed by culturing in 5% CO2 at 37° C. for 24 hours.
After the culturing, the medium was replaced by a medium prepared by adding to MCDB153 medium (Kyokuto Pharmaceutical Ind. Co., Ltd.) DMSO containing 5 mg/l bovine insulin (Sigma Chemical Co., Ltd.); 5 μg/l mouse epidermal growth factor (EGF) (Takara Shuzo Co., Ltd.); 40 mg/l bovine pituitary extract (Kyokuto Pharmaceutical Ind. Co., Ltd.); 10 mg/l human transferrin (Sigma Chemical Co., Ltd.); 0.4 mg/l hydrocortisone (Sigma Chemical Co., Ltd.); 0.63 μg/l progesterone (Collaborative Research Co.); 14 mg/l O-phosphoethanolamine (Sigma Chemical Co., Ltd.); 6.1 mg/l ethanolamine (Sigma Chemical Co., Ltd.); 50 U/ml penicillin (Wako Pure Chemical Industries, Ltd.); 50 μg/ml streptomycin (Wako Pure Chemical Industries, Ltd.); monooleoyl lysophosphatidic acid, dioleoyl phosphatidic acid (Sigma Chemical Co., Ltd.), didecanoyl phosphatidic acid (Sigma Chemical Co., Ltd.), dimyristoyl phosphatidic acid (Funakoshi Co., Ltd.), dipalmitoyl phosphatidic acid (Wako Pure Chemical Industries, Ltd.), dilauroyl phosphatidic acid (Funakoshi Co., Ltd.) or egg yolk-derived phosphatidic acid (Sigma Chemical Co., Ltd.); and/or proanthocyanidin, a protein kinase C-specific inhibitor or tocopherol (added in an amount of 1/100 by volume), followed by further culturing in 5% CO2 at 37° C. for 5 days. During the culturing, the medium was replaced with a fresh one every other day.
As a control, the cells were cultured in the same medium as above except that DMSO alone was added in an amount of 1/100 by volume in place of DMSO containing lysophosphatidic acid or phosphatidic acid, and/or proanthocyanidin, a protein kinase C-specific inhibitor or tocopherol.
The degree of cell growth was measured according to the method using MTT [3-(4,5-dimethylthiazol-2-yl)-2,5-diphenyl tetrazolium bromide] [Experimental Medicine (extra number), Bio Manual UP Series, Experimental Method of Cell Culture for Molecular Biological Studies, p. 89–92, Yodosha (1995)].
To each well of the 24-well microplate (2 cm^2/well) was added a PBS solution of MTT (5 mg/ml) in an amount of 1/10 by volume based on 1 ml of the culture. […]

protein kinase C (PKC) = assay: Measurement of PKC-inhibiting activity (PKC-IC50); settings: for IC50: read-out: PKC-IC50, crude enzyme partially purified from rat brain
Experimental: (1) Method for Measuring PKC-Inhibiting Activity
Measurement of PKC-inhibiting activity can be carried out in a manner similar to the method of Kikkawa, et al. [Journal of Biological Chemistry, 257, 13341 (1982)].
To 250 μl of an aqueous solution comprising 2.5 μmol of magnesium acetate, 50 μg of histone Type IIIS (Sigma Chemical Co., Ltd.), 20 μg of phosphatidylserine, 0.8 μg. of diolein, 25 nmol of calcium chloride, 5 μg of a crude enzyme (partially purified from rat brain by the method of Kikkawa, et al.) and 5 μmol of Tris-HCl buffer (pH 7.5) is added the above aqueous solution containing a test compound (10 μl), followed by incubation at 30° C. for 3 minutes. After the incubation, 1.25 nmol of [γ-^32P]ATP (5–10×10^3 cpm/nmol) is added thereto, followed by phosphorylation reaction at 30° C. for 3 minutes. The reaction is terminated by addition of 25% trichloroacetic acid and the reaction mixture is filtered through a cellulose acetate membrane (pore size: 0.45 μm, Toyo Filter Co., Ltd.) After the membrane is washed four times with 5% trichloroacetic acid, the radioactivity remaining on the membrane is measured as a test compound value. Separately, the above procedure is carried out in the same manner without addition of the test compound and the radioactivity is measured as a control value.
The molar concentration of the test compound giving a test compound value which is 50% of the control value is regarded as the 50% PKC inhibition constant (PKC-IC50).

protein kinase A (PKA) = protein kinase A (PKA) (Bos taurus, UniProt P00517); assay: Measurement of PKA-inhibiting activity (PKA-IC50); assay type: biochemical; settings: crude enzyme partially purified from calf heart
Text: (2) Method for Measuring PKA-Inhibiting Activity

[2] = Table 2 (2), 10 μmol/l alone, 5 days culture
[3] = Table 2 (1), 30 μmol/l alone, 5 days culture
[4] = Table 2 (1), 3 μmol/l alone, 5 days culture

Compound: CCCCCCCCCC(=O)OCC(COP(=O)(O)O)OC(=O)CCCCCCCCC (stereo not drawn) [Didecanoyl phosphatidic acid, didecanoyl phosphatidic acid]
Relative cell growth rate based on the control as 100 ([1]; Table 2 (2), 1 μmol/l alone): 168

Compound: CCCCCCCCCCCC(=O)OC[C@H](COP(=O)(O)O)OC(=O)CCCCCCCCCCC [Dilauroyl phosphatidic acid, dilauroyl phosphatidic acid]
Relative cell growth rate based on the control as 100 [1, 2]: 379

Compound: Polymyxin B
PKA-IC50/PKC-IC50 (protein kinase C (PKC)): > 384
IC50 (protein kinase C (PKC)): 2.6 µM
IC50 (protein kinase A (PKA)): > 1000 µM

Compound: CCCCCCCCCCCCCC(=O)OCC(COP(=O)(O)O)OC(=O)CCCCCCCCCCCCC (stereo not drawn) [Dimyristoyl phosphatidic acid, dimyristoyl phosphatidic acid]
Relative cell growth rate based on the control as 100 [1, 2]: 361

Compound: CCCCCCCC/C=C\CCCCCCCC(=O)OC[C@H](COP(=O)(O)O)OC(=O)CCCCCCC/C=C\CCCCCCCC [Dioleoyl phosphatidic acid, dioleoyl phosphatidic acid]
Relative cell growth rate based on the control as 100 [1, 2]: 255

Compound: Cc1c(C)c2c(c(C)c1O)CCC(C)(CCCC(C)CCCC(C)CCCC(C)C)O2 (racemic) [dl-α-Tocopherol]
Relative cell growth rate based on the control as 100 [1, 3]: 150
Relative cell growth rate based on the control as 100 ([1]; Table 2 (2), 30 μmol/l alone): 199

PKA-IC50/PKC-IC50 (protein kinase C (PKC)): > 4.3
IC50 (protein kinase C (PKC)): 230 µM
IC50 (protein kinase A (PKA)): > 1000 µM
Compound: CCCCCCCCCCCCCCCC(=O)OC(CC(=O)[O-])C[N+](C)(C)C (racemic) [Palmitoyl-DL-carnitine]

Compound: Oc1cc(O)c2c(c1)O[C@H](c1ccc(O)c(O)c1)[C@H](O)[C@H]2c1c(O)cc(O)c2c1O[C@H](c1ccc(O)c(O)c1)[C@H](O)C2 [Procyanidin B-2, epicatechin-(4β→8)-epicatechin]
Relative cell growth rate based on the control as 100 [1, 3]: 260
Relative cell growth rate based on the control as 100 [1, 2]: 251

Compound: CCCCCCCC/C=C\CCCCCCCC(=O)OC[C@@H](O)COP(=O)(O)O [Monooleoyl lysophosphatidic acid, monooleoyl lysophosphatidic acid]
Relative cell growth rate based on the control as 100 [1, 4]: 200

Compound: Calphostin C
PKA-IC50/PKC-IC50 (protein kinase C (PKC); ratio of PKA-IC50 to PKC-IC50): >1000 ∥mol/l
IC50 (protein kinase C (PKC)): 0.05 µM
IC50 (protein kinase A (PKA)): > 50 µM
Relative cell growth rate based on the control as 100 [1, 4]: 180
Relative cell growth rate based on the control as 100 ([1]; Table 2 (2), 0.01 μmol/l alone): 172

Compound: CCCCCCCCCCCCCCCC(=O)OC[C@H](COP(=O)(O)O)OC(=O)CCCCCCCCCCCCCCC [Dipalmitoyl phosphatidic acid, dipalmitoyl phosphatidic acid]
Relative cell growth rate based on the control as 100 ([1]; Table 2 (2), 20 μmol/l alone): 314
